Target: T1, USP25 (USP25-His6, Boston Biochem E-546) (Homo sapiens, UniProt Q9UHP3)
T1 construct: His6; purchased Boston Biochem E-546
T1 sequence (Q9UHP3 1-1055): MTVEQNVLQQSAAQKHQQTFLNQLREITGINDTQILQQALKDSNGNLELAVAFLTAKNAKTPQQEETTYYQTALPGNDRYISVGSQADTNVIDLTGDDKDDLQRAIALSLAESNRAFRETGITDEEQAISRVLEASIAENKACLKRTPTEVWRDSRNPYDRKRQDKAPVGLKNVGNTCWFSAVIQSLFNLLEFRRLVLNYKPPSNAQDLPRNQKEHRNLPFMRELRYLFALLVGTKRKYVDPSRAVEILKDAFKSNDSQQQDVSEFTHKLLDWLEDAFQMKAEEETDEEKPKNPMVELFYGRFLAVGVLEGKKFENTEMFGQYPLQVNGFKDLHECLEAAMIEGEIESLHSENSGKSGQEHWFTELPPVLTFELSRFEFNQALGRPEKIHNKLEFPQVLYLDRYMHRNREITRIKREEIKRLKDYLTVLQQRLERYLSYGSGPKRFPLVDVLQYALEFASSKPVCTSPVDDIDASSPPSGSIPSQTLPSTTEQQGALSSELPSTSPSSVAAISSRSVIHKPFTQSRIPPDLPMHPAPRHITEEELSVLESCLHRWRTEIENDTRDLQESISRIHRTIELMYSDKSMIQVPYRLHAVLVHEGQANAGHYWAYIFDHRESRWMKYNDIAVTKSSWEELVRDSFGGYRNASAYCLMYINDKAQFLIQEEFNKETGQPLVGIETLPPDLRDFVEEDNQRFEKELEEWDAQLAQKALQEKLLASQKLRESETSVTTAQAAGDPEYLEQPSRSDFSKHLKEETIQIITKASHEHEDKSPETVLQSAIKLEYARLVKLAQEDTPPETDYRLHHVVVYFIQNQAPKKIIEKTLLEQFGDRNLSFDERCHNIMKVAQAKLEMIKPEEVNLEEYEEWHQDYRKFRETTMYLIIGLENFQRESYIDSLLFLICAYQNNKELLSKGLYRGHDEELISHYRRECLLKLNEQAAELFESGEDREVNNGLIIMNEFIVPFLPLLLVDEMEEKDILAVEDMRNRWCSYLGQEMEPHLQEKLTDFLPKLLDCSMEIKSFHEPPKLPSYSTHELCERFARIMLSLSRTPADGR
Assay: Ubiquitin-Rhodamine 110 Assay for USP25 Activity, Example A-2
Format: biochemical
Details: Ubiquitin-Rhodamine 110 assay, Example A-2; read-out: USP25 A-2 IC50 range
How it was run: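 Fluorescence (ex 485, em 535 nm) of cleaved ubiquitin-rhodamine 110 (25 nM, below Km) gave IC50 via 4-parameter logistic fit. Reaction: 45 min, room temperature, citric acid stop, after 30 min compound preincubation with 75 pM USP25-His6 in 20 mM Tris pH 8.0, 3 mM BME, 0.03% BGG, 0.01% Triton X-100; top dose 25 μM.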

Compound | IC50
Cc1ccc2c(N)c(C(=O)N[C@@H]3Cc4ccc(N5CCNCC5)nc4[C@@H](C)C3)sc2n1 (single isomer, unassigned) [Example 205] | > 2 µM
Cc1cc(C)c2c(N)c(C(=O)N[C@H]3COc4cc(N5CC[C@H]6CNC[C@H]65)cc(F)c4C3)sc2n1 (single isomer, unassigned) [Example 222] | 0.05 to 0.2 µM
Cc1cc(C)c2c(N)c(C(=O)N[C@H]3COc4cc(N5CC[C@@H]6CNC[C@@H]65)cc(F)c4C3)sc2n1 (single isomer, unassigned) [Example 223] | 0.05 to 0.2 µM
CO[C@H]1CN(c2cc3c(cc2C#N)C[C@@H](NC(=O)c2sc4nc(C)ccc4c2N)CO3)C[C@@H]1N [Example 177, 3-amino-N-[(3R)-7-[(3S,4S)-3-amino-4-methoxypyrrolidin-1-yl]-6-cyano-3-4-dihydro-2H-1-benzopyran-3-yl]-6-methylthieno[2,3-b]pyridine-2-carboxamide] | 0.05 to 0.2 µM
CO[C@H]1CN(c2ccc3c(c2C#N)CC[C@H](NC(=O)c2sc4nc(C)ccc4c2N)C3)C[C@@H]1N [Example 178, 3-amino-N-[(2S)-6-[(3S,4S)-3-amino-4-methoxypyrrolidin-1-yl]-5-cyano-1,2,3,4-tetrahydronaphthalen-2-yl]-6-methylthieno[2,3-b]pyridine-2-carboxamide] | 0.2 to 2 µM
CO[C@H]1CN(c2ccc3c(n2)OC[C@H](NC(=O)c2sc4nc(C)cnc4c2N)C3)C[C@@H]1N [Example 181, 7-amino-N-[(3R)-7-[(3S,4S)-3-amino-4-methoxypyrrolidin-1-yl]-2H,3H,4H-pyrano[2,3-b]pyridin-3-yl]-3-methylthieno[2,3-b]pyrazine-6-carboxamide] | > 2 µM
CCO[C@H]1CN(c2ccc3c(n2)OC[C@H](NC(=O)c2sc4nc(C)cnc4c2N)C3)C[C@@H]1N [Example 182, 7-amino-N-[(3R)-7-[(3S,4S)-3-amino-4-ethoxypyrrolidin-1-yl]-2H,3H,4H-pyrano[2,3-b]pyridin-3-yl]-3-methylthieno[2,3-b]pyrazine-6-carboxamide] | > 2 µM
CO[C@H]1CN(c2nc3c(cc2F)C[C@@H](NC(=O)c2sc4nc(C)ccc4c2N)CC3)C[C@@H]1N [Example 183, 3-amino-N-[(6S)-2-[(3S,4S)-3-amino-4-methoxypyrrolidin-1-yl]-3-fluoro-5,6,7,8-tetrahydroquinolin-6-yl]-6-methylthieno[2,3-b]pyridine-2-carboxamide] | > 2 µM
Cc1ccc2c(N)c(C(=O)N[C@H]3COc4cc(N5CCO[C@H]6CNC[C@H]65)ccc4C3)sc2n1 [Example 184, N-[(3R)-7-[(4aR, 7aS)-octahydropyrrolo[3,4-b]morpholin-4-yl]-3,4-dihydro-2H-1-benzopyran-3-yl]-3-amino-6-methylthieno[2,3-b]pyridine-2-carboxamide] | 0.05 to 0.2 µM
Cc1ccc2c(N)c(C(=O)N[C@H]3COc4cc(N5CCO[C@@H]6CNC[C@@H]65)ccc4C3)sc2n1 [Example 185, N-[(3R)-7-[(4aS,7aR)-octahydropyrrolo[3,4-b]morpholin-4-yl]-3,4-dihydro-2H-1-benzopyran-3-yl]-3-amino-6-methylthieno[2,3-b]pyridine-2-carboxamide] | 0.05 to 0.2 µM
CO[C@H]1CN(c2ccc3c(c2)CC[C@H](NC(=O)c2cnc4c(c2)C2CC2CN4)C3)C[C@@H]1N (stereo partly drawn) [Example 188, N-[(2S)-6-[(3S,4S)-3-amino-4-methoxypyrrolidin-1-yl]-1,2,3,4-tetrahydronaphthalen-2-yl]-5H,6H,6aH,7H,7aH-cyclopropa[c]1,8-naphthyridine-2-carboxamide] | > 2 µM
CO[C@H]1CN(c2ccc3c(c2)CC[C@H](NC(=O)c2cnc4c(c2)[C@@H]2C[C@@H]2CN4)C3)C[C@@H]1N [Example 189, (6aS,7aR)-N-[(2S)-6-[(3S,4S)-3-amino-4-methoxypyrrolidin-1-yl]-1,2,3,4-tetrahydronaphthalen-2-yl]-5H,6H,6aH,7H,7aH-cyclopropa[c]1,8-naphthyridine-2-carboxamide] | > 2 µM
CO[C@H]1CN(c2ccc3c(c2)CC[C@H](NC(=O)c2cnc4c(c2)[C@H]2C[C@H]2CN4)C3)C[C@@H]1N [Example 190, (6aR,7aS)-N-[(2S)-6-[(3S,4S)-3-amino-4-methoxypyrrolidin-1-yl]-1,2,3,4-tetrahydronaphthalen-2-yl]-5H,6H,6aH,7H,7aH-cyclopropa[c]1,8-naphthyridine-2-carboxamide] | > 2 µM
O=C(N[C@H]1CCc2cc(N3CC4CCC(C3)N4)cc(F)c2C1)c1cnc2c(c1)[C@@H]1C[C@@H]1CN2 [Example 191, (6aS,7aR)-N-[(2S)-6-{3,8-diazabicyclo[3.2.1]octan-3-yl}-8-fluoro-1,2,3,4-tetrahydronaphthalen-2-yl]-5H,6H,6aH,7H,7aH-cyclopropa[c]1,8-naphthyridine-2-carboxamide] | > 2 µM
O=C(N[C@H]1CCc2cc(N3CC4CCC(C3)N4)cc(F)c2C1)c1cnc2c(c1)[C@H]1C[C@H]1CN2 [Example 192, (6aR,7aS)-N-[(2S)-6-{3,8-diazabicyclo[3.2.1]octan-3-yl}-8-fluoro-1,2,3,4-tetrahydronaphthalen-2-yl]-5H,6H,6aH,7H,7aH-cyclopropa[c]1,8-naphthyridine-2-carboxamide] | 0.05 to 0.2 µM
O=C(N[C@@H]1CCc2cc(N3CC4CCC(C3)N4)cc(F)c2C1)c1cnc2c(c1)[C@@H]1C[C@@H]1CN2 [Example 193, (6aS,7aR)-N-[(2R)-6-{3,8-diazabicyclo[3.2.1]octan-3-yl}-8-fluoro-1,2,3,4-tetrahydronaphthalen-2-yl]-5H,6H,6aH,7H,7aH-cyclopropa[c]1,8-naphthyridine-2-carboxamide] | > 2 µM
O=C(N[C@@H]1CCc2cc(N3CC4CCC(C3)N4)cc(F)c2C1)c1cnc2c(c1)[C@H]1C[C@H]1CN2 [Example 194, (6aR,7aS)-N-[(2R)-6-{3,8-diazabicyclo[3.2.1]octan-3-yl}-8-fluoro-1,2,3,4-tetrahydronaphthalen-2-yl]-5H,6H,6aH,7H,7aH-cyclopropa[c]1,8-naphthyridine-2-carboxamide] | 0.2 to 2 µM
N#Cc1c(N2CC3CCC(C2)N3)cc(F)c2c1CC[C@H](NC(=O)c1cnc3c(c1)[C@@H]1C[C@@H]1CN3)C2 [Example 195, (6aS,7aR)-N-[(2S)-5-cyano-6-{3,8-diazabicyclo[3.2.1]octan-3-yl}-8-fluoro-1,2,3,4-tetrahydronaphthalen-2-yl]-5H,6H,6aH,7H,7aH-cyclopropa[c]1,8-naphthyridine-2-carboxamide] | 0.05 to 0.2 µM
N#Cc1c(N2CC3CCC(C2)N3)cc(F)c2c1CC[C@H](NC(=O)c1cnc3c(c1)[C@H]1C[C@H]1CN3)C2 [Example 196, (6aR,7aS)-N-[(2S)-5-cyano-6-{3,8-diazabicyclo[3.2.1]octan-3-yl}-8-fluoro-1,2,3,4-tetrahydronaphthalen-2-yl]-5H,6H,6aH,7H,7aH-cyclopropa[c]1,8-naphthyridine-2-carboxamide] | > 2 µM
N#Cc1c(N2CC3CCC(C2)N3)cc(F)c2c1CC[C@@H](NC(=O)c1cnc3c(c1)[C@@H]1C[C@@H]1CN3)C2 [Example 197, (6aS,7aR)-N-[(2R)-5-cyano-6-{3,8-diazabicyclo[3.2.1]octan-3-yl}-8-fluoro-1,2,3,4-tetrahydronaphthalen-2-yl]-5H,6H,6aH,7H,7aH-cyclopropa[c]1,8-naphthyridine-2-carboxamide] | > 2 µM
N#Cc1c(N2CC3CCC(C2)N3)cc(F)c2c1CC[C@@H](NC(=O)c1cnc3c(c1)[C@H]1C[C@H]1CN3)C2 [Example 198, (6aR,7aS)-N-[(2R)-5-cyano-6-{3,8-diazabicyclo[3.2.1]octan-3-yl}-8-fluoro-1,2,3,4-tetrahydronaphthalen-2-yl]-5H,6H,6aH,7H,7aH-cyclopropa[c]1,8-naphthyridine-2-carboxamide] | 0.2 to 2 µM
CO[C@H]1CN(c2cc3c(c(F)c2C#N)C[C@@H](NC(=O)c2sc4nc(C)cnc4c2N)CO3)C[C@@H]1N [Example 199, 7-amino-N-[(3R)-7-[(3S,4S)-3-amino-4-methoxypyrrolidin-1-yl]-6-cyano-5-fluoro-3,4-dihydro-2H-1-benzopyran-3-yl]-3-methylthieno[2,3-b]pyrazine-6-carboxamide] | 0.05 to 0.2 µM
CO[C@H]1CN(c2cc3c(c(F)c2C#N)C[C@@H](NC(=O)c2sc4nc(C)ccc4c2N)CO3)C[C@@H]1N [Example 200] | 0.05 to 0.2 µM

From patent publication US11524966B1 (Valo Early Discovery, Inc., priority 2017, dated 2022)
